Laboratory results: US12606543B2, “Indole derivatives as serotonergic agents useful for the treatment of disorders related thereto” (priority 2023, dated 2026)
Read-outs that look alike come from different tables or passages of the source.

What was measured:
human 5-HT2A receptor = target: T1, human 5-HT2A receptor (Homo sapiens, UniProt P28223); assay: Human 5-HT2A β-arrestin reporter assay; type: cell-based; conditions: for Emax (% of serotonin): U2OS cells, relative to maximum response of serotonin
T1 construct: expressed in transfected cells; host or cells: U2OS
Protocol: Compound potency (EC50) and efficacy (Max response) against the human 5-HT2A receptor in stably transfected U2OS cells were determined in a G protein-coupled receptors (GPCR) cell based β-arrestin reporter assay.
(§1) Cells were seeded in a total volume of 20 μL into white walled, 384-well microplates and incubated at 37° C. overnight before analysis. For agonist determination, cells were incubated with samples to induce response. Intermediate dilution of sample stocks was performed to generate 5× samples in assay buffer. 5 μL of 5× samples were added to cells and incubated at 37° C. for 120 minutes. The final assay vehicle concentration was 1%. The results are expressed as percent efficacy relative to the maximum response of the control ligand (serotonin) in Table 10.
Compound potency (EC50) and efficacy (Max response) against the human 5-HT2A receptor in stably transfected U2OS cells was determined in a GPCR cell based β-arrestin reporter assay.
as §1, with “with sample” for “with samples”, “120 mins.” for “120 minutes.”, “Table 48.” for “Table 10.”

[1] = target: T2, human 5-hydroxytryptamine receptor 1A (5-HT1A) (Homo sapiens, UniProt P08908); assay: Human 5-HT1A functional FLIPR assay (agonist mode); type: cell-based; design: expressed in transfected cells; host or cells: Flp-In CHO; conditions: for RFU@10 μM: normalized fluorescence reading (Fmax−Fmin) at 10 μM, curve fitting with activation (%)
T2 sequence (P08908 1-422): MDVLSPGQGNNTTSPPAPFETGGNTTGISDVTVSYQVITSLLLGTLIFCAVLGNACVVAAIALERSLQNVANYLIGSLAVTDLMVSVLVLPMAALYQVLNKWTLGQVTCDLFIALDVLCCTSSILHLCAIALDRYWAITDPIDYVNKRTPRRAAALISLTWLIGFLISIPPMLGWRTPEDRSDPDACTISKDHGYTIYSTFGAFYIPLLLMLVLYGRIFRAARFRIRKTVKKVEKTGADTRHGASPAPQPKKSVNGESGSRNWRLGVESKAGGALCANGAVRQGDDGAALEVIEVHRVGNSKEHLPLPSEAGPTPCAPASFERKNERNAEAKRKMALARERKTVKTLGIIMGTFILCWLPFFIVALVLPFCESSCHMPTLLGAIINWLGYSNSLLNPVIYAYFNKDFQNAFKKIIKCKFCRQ
Protocol: The potential excitatory effects of compounds targeting on 5-hydroxytryptamine receptor 1A (5-HT1A) under agonist mode was assessed.
HTR1A&Gα15-CHO cells were cultured in DMEM/F12 medium containing 10% dialyzed FBS, 1× penicillin-streptomycin and 600 μg/mL Hygromycin B. The cells were passaged about three times a week, maintained between ˜30% to ˜90% confluence.
8. Cells were diluted to 4×10^5/mL with cell culture medium.
9. 30 μL/well cell suspensions were added into a 384-well cell plate (The cell density was 12,000 cells/well).
2. 10 μL of assay buffer (20 mM HEPES, in 1×HBSS, pH 7.4) was added to each well of the cell plate.
3. 2× dye solution was prepared following the manufacture's instruction of the FLIPR® Calcium 6 assay kit: • i. The dye was diluted with assay buffer. • ii. probenecid was added to the final concentration of 5 mM. • iii. Vortexed vigorously for 1-2 minutes, adjust pH to 7.4.
4. 10 μL of 2× dye solution was added to each well of the cell plate.
6. The plate was incubated at 37° C. for 2 hours followed by an additional 15-minute incubation at 25° C.
1. Serotonin was prepared to the concentration of 10 mM with DMSO, 3-folds serial dilutions were performed with DMSO.
2. Prepare the test compound to the concentration of 10 mM with DMSO, preform 3-folds serial dilutions with DMSO.
4. 90 nL/well of serial diluted compounds were transferred from source plate to a 384-well compound plate by using an Echo.
5. 30 μL/well of assay buffer was added to the compound plate.
2. 10 μL of 3× compounds were transferred from the compound plate to the cell plate by FLIPR.
3. The plate was read for 160 sec with 1 sec interval to obtain the data of agonist mode.
1. The normalized fluorescence reading (RFU) was calculated as shown below, wherein Fmax and Fmin stand for maximum and minimum of calcium signal during defined time window:
2. EC50 was calculated by fitting RFU against log of compound concentrations with Hill equation using XLfit.

[2] = target: human 5-hydroxytryptamine receptor 2A (5-HT2A) (Homo sapiens, UniProt P28223); assay: biochemical; type: binding
Protocol: The objective of this study was to evaluate the binding properties of exemplary compounds of Formula (I) on 5-hydroxytryptamine receptor 2A (5-HT2A).
1. The assay buffer was prepared following Table 17 below.
2. 8 doses of reference and test compounds starting from 10 mM stock solution as required were prepared by 5-fold serial dilutions with 100% (v/v) DMSO.
3. UniFilter-96 GF/B plate was pretreated: • i. 50 μl/well of 0.5% (v/v) PEI was added to UniFilter-96 GF/C plates. The plates were sealed and incubated at 4° C. for 3 hours (hrs). • ii. After incubation, the plates were washed 3 times with ice-cold wash buffer (50 mM Tris, pH7.4).
4. The assay plate was prepared: • i. Cell membrane was diluted with assay buffer and 330 μl/well was added to 96 round deep well plates to reach a concentration of 20 μg/well. • ii. 8 concentrations of reference or test compounds were prepared and 110 μl/well was added to 96 round deep well plates. • iii. [3H]-ketanserin was diluted with assay buffer to 5 nM (5× final concentration) and 110 μl/well was added to 96 round deep well plates.
5. The plate was centrifuged at 1000 rpm for 30 seconds (secs) and then agitated at 600 rpm at room temperature for 5 min.
6. The plates were sealed and the plate incubated at 27° C. for 90 min.
7. The incubation was stopped by vacuum filtration onto GF/B filter plates followed by 4 times washing with ice-cold wash buffer (50 mM Tris, pH7.4).
8. The filter plates were sealed and 40 μl/well of scintillation cocktail was added.
10. The plate was read by using a Microbeta^2 microplate counter.
1. For reference and test compounds, the results were expressed as % Inhibition, using the normalization equation: N=100−100×(U−C2)/(C1−C2), where U is the unknown value, C1 is the average of high controls, and C2 is the average of low controls.
2. The IC50 was determined by fitting percentage of inhibition as a function of compound concentrations with Hill equation using XLfit. […]
9. The filter plates were sealed and 40 μl/well of scintillation cocktail was added.

[3] = β-arrestin reporter, stably transfected U2OS cells, 120 min, read-out: EC50

T1 sequence (P28223 whole entry): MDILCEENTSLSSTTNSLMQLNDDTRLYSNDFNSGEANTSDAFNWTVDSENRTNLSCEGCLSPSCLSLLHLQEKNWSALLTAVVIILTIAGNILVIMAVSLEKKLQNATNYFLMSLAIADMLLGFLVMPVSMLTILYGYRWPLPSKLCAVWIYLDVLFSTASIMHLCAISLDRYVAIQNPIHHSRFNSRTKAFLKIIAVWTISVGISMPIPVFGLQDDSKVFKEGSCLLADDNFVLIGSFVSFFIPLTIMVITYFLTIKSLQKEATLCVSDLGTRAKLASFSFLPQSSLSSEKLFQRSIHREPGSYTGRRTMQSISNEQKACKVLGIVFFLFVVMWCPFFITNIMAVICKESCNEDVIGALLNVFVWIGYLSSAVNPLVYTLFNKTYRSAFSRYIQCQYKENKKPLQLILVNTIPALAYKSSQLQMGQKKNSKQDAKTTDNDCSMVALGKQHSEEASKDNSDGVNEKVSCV
Sequence of human 5-hydroxytryptamine receptor 2A (5-HT2A) (P28223 whole entry): as above

Compound: CSc1ccc2[nH]cc(C[C@H]3CCCN3C)c2c1 [(R) I-1, (R)-3-((1-Methylpyrrolidin-2-yl)methyl)-5-(methylthio)-1H-indole]
- EC50 (human 5-HT2A receptor): 25.4 nM
- Emax (% of serotonin) (human 5-HT2A receptor; β-arrestin reporter): 79.27 % of serotonin
- EC50 [1]: 581 nM
- RFU@10 μM [1]: 3,355 RFU
- IC50 [2]: 154 nM

Compound: CN(C)CCc1c[nH]c2ccccc12 [DMT]
- Emax (% of serotonin) (human 5-HT2A receptor; β-arrestin reporter): 38.86 % of serotonin
- EC50 (human 5-HT2A receptor; [3]): 114 nM
- RFU@10 μM [1]: 204 RFU
- IC50 ([2]; [3H]-ketanserin displacement, cell membrane, 27° C., 90 min, read-out: h5-HT2A, IC50): 954 nM

Compound: [2H]C([2H])(c1c[nH]c2ccc(OCCCCCN3C(=O)C4CCCCC4C3=O)cc12)[C@H]1CCCN1C([2H])([2H])[2H] (mixture of isomers) [Rac (R) I-248]
- RFU@10 μM [1]: 601 RFU
- IC50 [2]: 310 nM

Compound: [2H]C([2H])(c1c[nH]c2ccc(OCCCCN3C(=O)c4ccccc4C3=O)cc12)[C@H]1CCCN1C([2H])([2H])[2H] [(R) I-244, (R)-2-(4-((3-((1-(Methyl-d3)pyrrolidin-2-yl)methyl-d2)-1H-indol-5-yl)oxy)butyl)isoindoline-1,3-dione]
- Emax (% of serotonin) (human 5-HT2A receptor; β-arrestin reporter): 79.58 % of serotonin
- EC50 (human 5-HT2A receptor; [3]): 6.71 nM
- RFU@10 μM [1]: 616 RFU
- IC50 [2]: 129 nM

Compound: [2H]C([2H])(c1c[nH]c2ccc(OCCCCCN3C(=O)c4ccccc4C3=O)cc12)[C@H]1CCCN1C([2H])([2H])[2H] [(R) I-245, (R)-2-(5-((3-((1-(Methyl-d3)pyrrolidin-2-yl)methyl-d2)-1H-indol-5-yl)oxy)pentyl)isoindoline-1,3-dione]
- Emax (% of serotonin) (human 5-HT2A receptor; β-arrestin reporter): 82.18 % of serotonin
- EC50 (human 5-HT2A receptor; [3]): 28.4 nM
- RFU@10 μM [1]: 899 RFU
- IC50 [2]: 225 nM

Compound: [2H]C([2H])(c1c[nH]c2ccc(OCCCCCN3C(=O)[C@H]4CCCC[C@H]4C3=O)cc12)[C@H]1CCCN1C([2H])([2H])[2H] [Cis (R) I-248, 2-(5-((3-(((R)-1-(Methyl-d3)pyrrolidin-2-yl)methyl-d2)-1H-indol-5-yl)oxy)pentyl)hexahydro-1H-isoindole-1,3(2H)-dione]
- Emax (% of serotonin) (human 5-HT2A receptor; β-arrestin reporter): 84.4 % of serotonin
- EC50 (human 5-HT2A receptor; [3]): 112 nM

Compound: COCCN1CCC[C@@H]1Cc1c[nH]c2ccc(OC)cc12 [(R) I-98, (R)-5-Methoxy-3-((1-(2-methoxyethyl)pyrrolidin-2-yl)methyl)-1H-indole]
- Emax (% of serotonin) (human 5-HT2A receptor; β-arrestin reporter): 81.67 % of serotonin
- EC50 (human 5-HT2A receptor; [3]): 25.8 nM
- EC50 [1]: 3170 nM
- RFU@10 μM [1]: 1,666 RFU
- IC50 [2]: 350 nM
